Assay results from patent publication US20090048301A1 (IMCLONE SYSTEMS INCORPORATED, priority 2003, published 2009).

System: bovine tubulin
Assay: In vitro tubulin polymerization assay (turbidity at 340 nm)
Format: biochemical
Settings: 10 μM compound, 30 minute data point, vs 1% DMSO control
Description: Briefly, tubulin polymerization is a kinetic process that is temperature-dependent and requires GTP and was performed as follows. Soluble tubulin dimers polymerize into microtubules upon warming, and polymerization in vitro correlates with an increase in turbidity (measured at 340 nm). Lyophilized bovine tubulin (HTS Tubulin—97% tubulin, <3% MAPs—Cytoskeleton Inc.) was ressuspended in G-PEM buffer (80 mM PIPES pH 7, 1 mM EGTA, 1 mM MgCl2, 1 mM GTP, 5% glycerol) to a final concentration of 3 mg/ml and kept at 4° C. Compounds in 100× stock solutions in DMSO were dotted to pre-warmed 96-well plates (Corning Costar 3696), the plates were transferred to a 37° C. plate reader (SPECTRAmax Plus, Molecular Devices), cold tubulin was added to the wells, and the plates were shaken for mixing. The absorbance at 340 nm was determined at one minute intervals for 30 minutes. Kinetic curves with 30 points each were collected for each compound, and the dynamic range was between 0 and 0.4 OD units. The percentage inhibition values were calculated using the 30 minute data point and based on control samples (treated with 1% DMSO only). The assay is a modified version of the HTS kit sold by Cytoskeleton (1830 S. Acoma St., Denver, Colo.), adapted to maximize throughput and reduce time, without reduction in dynamic range or sensitivity, while retaining the ability to detect compounds that inhibit or enhance tubulin polymerization.
Tubulin polymerization is a kinetic process that is temperature-dependent and requires GTP. Soluble tubulin dimers polymerize into microtubules upon warming, and polymerization in vitro correlates with an increase in turbidity (measured at 340 nm). Liophilized bovine tubulin (HTS Tubulin—97% tubulin, <3% MAPs—Cytoskeleton Inc.) was ressuspended in G-PEM buffer (80 mM PIPES pH 7, 1 mM EGTA, 1 mM MgCl2, 1 mM GTP, 5% glycerol) to a final concentration of 3 mg/ml and kept at 4° C. Compounds in 100× stock solutions in DMSO were dotted to pre-warmed 96-well plates (Corning Costar 3696), the plates were immediately transferred to a 37° C. plate reader (SPECTRAmax Plus, Molecular Devices), cold tubulin was added to the wells, plates were shaken for mixing, and absorbance at 340 nm was read every minute for 30 minutes. Kinetic curves with 30 points each were collected for each compound, and the dynamic range was between 0 and 0.4 OD units. Percentage inhibition values were calculated using the 30 minute data point, based on control samples (treated with 1% DMSO only). This assay is a modified version of the HTS kit sold by Cytoskeleton, adapted to maximize throughput and reduce time, without reduction in dynamic range or sensitivity, while retaining the ability to detect compounds that inhibit or enhance tubulin polymerization.

Compound | Tubulin Assay: percent inhibition at 10 μM based on 30 minute data [%]
COc1cccc(Nc2nc(-c3cccnc3Nc3cc(OC)cc(OC)c3)nn2C)c1 [Compound 66, (3,5-Dimethoxy-phenyl)-{3-[5-(3-methoxy-phenylamino)-1-methyl-1H-[1,2,4]triazol-3-yl]-pyridin-2-yl}-amine] | 73
COc1cc(Nc2ncccc2-c2nc(Nc3ccc4c(c3)OCCO4)n(C)n2)cc(OC)c1 [Compound 67, {3-[5-(2,3-Dihydro-benzo[1,4]dioxin-6-ylamino)-1-methyl-1H-[1,2,4]triazol-3-yl]-pyridin-2-yl}-(3,5-dimethoxy-phenyl)-amine] | 76
Cn1nc(-c2cccnc2NCc2ccncc2)nc1Nc1ccc2c(c1)OCCO2 [Compound 68, {3-[5-(2,3-Dihydro-benzo[1,4]dioxin-6-ylamino)-1-methyl-1H-[1,2,4]triazol-3-yl]-pyridin-2-yl}-pyridin-4-ylmethyl-amine] | 58
COc1cccc(Nc2nc(-c3cccnc3NCc3ccncc3)nn2C)c1 [Compound 69, {3-[5-(3-Methoxy-phenylamino)-1-methyl-1H-[1,2,4]triazol-3-yl]-pyridin-2-yl}-pyridin-4-ylmethyl-amine] | 29
Cn1nc(-c2cccnc2NCc2ccncc2)nc1Nc1ccc2c(c1)OCO2 [Compound 70, {3-[5-(Benzo[1,3]dioxol-5-ylamino)-1-methyl-1H-[1,2,4]triazol-3-yl]-pyridin-2-yl}-pyridin-4-ylmethyl-amine] | 32
FC(F)(F)c1cccc(-c2nnc(-c3cccnc3NCc3ccncc3)[nH]2)c1 [Compound 76, Pyridin-4-ylmethyl-{3-[5-(3-trifluoromethyl-phenyl)-4H-[1,2,4]thiazol-3-yl]-pyridin-2-yl}-amine] | 21
Fc1ccc(-c2nnc(-c3cccnc3NCc3ccc4c(c3)OCO4)[nH]2)cc1Cl [Compound 81, Benzo[1,3]dioxol-5-ylmethyl-{3-[5-(3-chloro-4-fluoro-phenyl)-4H-[1,2,4]triazol-3-yl]-pyridin-2-yl}-amine] | 20
FC(F)(F)c1cccc(-c2nnc(-c3cccnc3NCc3ccc4c(c3)OCO4)[nH]2)c1 [Compound 83, Benzo[1,3]dioxol-5-ylmethyl-{3-[5-(3-trifluoromethyl-phenyl)-4H-[1,2,4]triazol-3-yl]-pyridin-2-yl}-amine] | 25
COc1cccc(-c2nnc(-c3cccnc3NCCc3c[nH]cn3)[nH]2)c1 [Compound 90, [2-(1H-Imidazol-4-yl)-ethyl]-{3-[5-(3-methoxy-phenyl)-4H-[1,2,4]triazol-3-yl]-pyridin-2-yl}-amine] | 25
CS(=O)(=O)c1ccc(-c2nnc(-c3cccnc3NCCc3c[nH]cn3)[nH]2)cc1 [Compound 91, [2-(1H-Imidazol-4-yl)-ethyl]-{3-[5-(4-methanesulfonyl-phenyl)-4H-[1,2,4]triazol-3-yl]-pyridin-2-yl}-amine] | 29
COc1cc(Nc2ncccc2-c2nnc(-c3ccc4c(c3)OCO4)[nH]2)cc(OC)c1 [Compound 93, [3-(5-Benzo[1,3]dioxol-5-yl-4H-[1,2,4]triazol-3-yl)-pyridin-2-yl]-(3,5-dimethoxy-phenyl)-amine] | 28
COc1cccc(-c2nnc(-c3cccnc3NCc3ccncc3)[nH]2)c1 [Compound 94, {3-[5-(3-Methoxy-phenyl)-4H-[1,2,4]triazol-3-yl]-pyridin-2-yl}-pyridin-4-ylmethyl-amine] | 43
COc1cccc(-c2nnc(-c3cccnc3NCc3ccco3)[nH]2)c1 [Compound 95, Furan-2-ylmethyl-{3-[5-(3-methoxy-phenyl)-4H-[1,2,4]triazol-3-yl]-pyridin-2-yl}-amine] | 41
FC(F)(F)c1cccc(-c2nnc(-c3cccnc3NCc3ccco3)[nH]2)c1 [Compound 96, Furan-2-ylmethyl-{3-[5-(3-trifluoromethyl-phenyl)-4H-[1,2,4]triazol-3-yl]-pyridin-2-yl}-amine] | 20
CS(=O)(=O)c1ccc(-c2nnc(-c3cccnc3NCCc3cccnc3)[nH]2)cc1 [Compound 99, {3-[5-(4-Methanesulfonyl-phenyl)-4H-[1,2,4]triazol-3-yl]-pyridin-2-yl}-(2-pyridin-3-yl-ethyl)-amine] | 47
c1cnc(NCc2ccc3c(c2)OCCO3)c(-c2nnc(-c3ccc4c(c3)OCO4)[nH]2)c1 [Compound 104, [3-(5-Benzo[1,3]dioxol-5-yl-4H-[1,2,4]triazol-3-yl)-pyridin-2-yl]-(2,3-dihydro-benzo[1,4]dioxin-6-ylmethyl)-amine] | 21
CS(=O)(=O)c1ccc(-c2nnc(-c3cccnc3NCc3cccc(F)c3)[nH]2)cc1 [Compound 107, (3-Fluoro-benzyl)-{3-[5-(4-methanesulfonyl-phenyl)-4H-[1,2,4]triazol-3-yl]-pyridin-2-yl}-amine] | 37
COc1cccc(-c2nnc(-c3cccnc3OCc3ccc4c(c3)OCO4)[nH]2)c1 [Compound 110, 2-(Benzo[1,3]dioxol-5-ylmethoxy)-3-[5-(3-methoxy-phenyl)-4H-[1,2,4]triazol-3-yl]-pyridine] | 20
COc1cccc(CNc2nnc(-c3ccccc3NCc3ccncc3)[nH]2)c1 [Compound 112, (3-Methoxy-benzyl)-(5-{2-[(pyridin-4-ylmethyl)-amino]-phenyl}-4H-[1,2,4]triazol-3-yl)-amine] | 49
COc1ccc(CNc2nnc(-c3ccccc3NCc3ccncc3)[nH]2)cc1 [Compound 113, (4-Methoxy-benzyl)-(5-{2-[(pyridin-4-ylmethyl)-amino]-phenyl}-4H-[1,2,4]triazol-3-yl)-amine] | 24
COc1ccc(Nc2nnc(-c3ccccc3NCc3ccncc3)[nH]2)c(OC)c1 [Compound 114, (2,4-Dimethoxy-phenyl)-(5-{2-[(pyridin-4-ylmethyl)-amino]-phenyl}-4H-[1,2,4]triazol-3-yl)-amine] | 24
COc1ccc(Nc2nnc(-c3ccccc3NCc3ccncc3)[nH]2)cc1 [Compound 116, (4-Methoxy-phenyl)-(5-{2-[(pyridin-4-ylmethyl)-amino]-phenyl}-4H-[1,2,4]triazol-3-yl)-amine] | 20
c1ccc(-c2nnc(Nc3ccc4c(c3)OCO4)[nH]2)c(NCc2ccc3[nH]cnc3c2)c1 [Compound 118, Benzo[1,3]dioxol-5-yl-(5-{2-[(1H-benzoimidazol-5-ylmethyl)-amino]-phenyl}-4H-[1,2,4]triazol-3-yl)-amine] | 41
COc1cc(Nc2nnc(-c3ccccc3NCc3ccc(F)c(F)c3)[nH]2)cc(OC)c1 [Compound 120, {5-[2-(3,4-Difluoro-benzylamino)-phenyl]-4H-[1,2,4]triazol-3-yl}-(3,5-dimethoxy-phenyl)-amine] | 63
CN(C)c1ccc(Nc2nnc(-c3ccccc3NCc3ccc(F)c(F)c3)[nH]2)cc1 [Compound 121, {5-[2-(3,4-Difluoro-benzylamino)-phenyl]-4H-[1,2,4]triazol-3-yl}-(4-dimethylamino-phenyl)-amine] | 23
O=[N+]([O-])c1cc(C(F)(F)F)ccc1-c1nnc(Nc2ccc3c(c2)OCO3)[nH]1 [Compound 124b] | 26
Nc1cc(C(F)(F)F)ccc1-c1nnc(Nc2ccc3c(c2)OCO3)[nH]1 [Compound 124c, [5-(2-Amino-4-trifluoromethyl-phenyl)-4H-[1,2,4]triazol-3-yl]-benzo[1,3]dioxol-5-yl-amine] | 61
FC(F)(F)c1ccc(-c2nnc(Nc3ccc4c(c3)OCO4)[nH]2)c(NCc2cccnc2)c1 [Compound 125, Benzo[1,3]dioxol-5-yl-(5-{2-[(pyridin-3-ylmethyl)-amino]-4-trifluoromethyl-phenyl}-4H-[1,2,4]triazol-3-yl)-amine] | 96
